Results on two compounds are retold here after article PMC7003431, “Betulinic acid shows anticancer activity against equine melanoma cells and permeates isolated equine skin in vitro” (BMC Veterinary Research, 2020).

One series concerns actinic keratoses. Also noted: method as in PMID 18808378. Conditions: 14 human patients; cited from earlier work.
Series [1] relates to primary equine melanoma cells compared to primary equine dermal fibroblasts. Nature of the series: Selectivity to tumor cells compared to normal cells (MTS and CVS assays). Format: cell-based, horse. Conditions: equine melanoma cells eRGO1, MelDuWi vs fibroblasts PriFi1, PriFi2. The procedure:
The inhibitory effect of BA on cell proliferation was evaluated using a modified crystal violet staining (CVS) assay. In brief, cells were seeded into 96-well microtiter plates with a density of 5000 cells/well to avert confluence of the cells during the experimental period. Twenty-four hours later, the cells were treated with serial dilutions of BA dissolved in DMSO and medium at nine different concentrations ranging from 1 to 100 μmol/L. The highest concentration of DMSO solvent was 0.5% in 100 μmol/L, which had neither an impact on the cell proliferation rate nor on the cell survival rate (preliminary experiments and regular controls within the experiments; data not shown). Control cells were only treated with medium. The proportion of treated cells in relation to untreated controls was determined 5, 24, 48 and 96 h after the beginning of the drug exposure. […] After 1 h of incubation, absorbance was measured at 570 nm using a 96-well microtiter plate reader (MRX microplate reader, Dynatech Laboratories, El Paso, US). […]
The cytotoxicity of BA was evaluated using the CellTiter 96® AQueous One Solution Cell Proliferation Assay (MTS) (Promega GmbH, Mannheim, Germany). […] After 1 h incubation, the plate absorbance was measured at 490 nm using a 96-well microtiter plate reader (MRX microplate reader, Dynatech Laboratories, El Paso, US). […]
A general note: Formazan colour is commonly taken as a measure of viable cells.

Series [2] deals with primary equine dermal fibroblasts PriFi1. Nature of the series: Crystal violet staining (CVS) proliferation assay. In kind it is cell-based, horse. Conditions: Equus caballus, Fibroblast, mean (95% CI), 6–8 experiments. The procedure:
(§1) The inhibitory effect of BA on cell proliferation was evaluated using a modified crystal violet staining (CVS) assay. In brief, cells were seeded into 96-well microtiter plates with a density of 5000 cells/well to avert confluence of the cells during the experimental period. Twenty-four hours later, the cells were treated with serial dilutions of BA dissolved in DMSO and medium at nine different concentrations ranging from 1 to 100 μmol/L. The highest concentration of DMSO solvent was 0.5% in 100 μmol/L, which had neither an impact on the cell proliferation rate nor on the cell survival rate (preliminary experiments and regular controls within the experiments; data not shown). Control cells were only treated with medium. The proportion of treated cells in relation to untreated controls was determined 5, 24, 48 and 96 h after the beginning of the drug exposure. The medium for 96-h experiments was renewed before cell treatment (24 h after inoculation). The medium-compound mix was discarded at the time points mentioned above and cells were fixed with 2% glutaraldehyde (Sigma-Aldrich) in PBS for 20 min. Glutaraldehyde was removed and cells were dyed for 30 min with 0.1% crystal violet (Roth GmbH, Karlsruhe, Germany) in deionized water. After washing with deionized water, the plates were air-dried. Subsequently, crystal violet was solubilized out of the cells by adding 2% Triton X-100 (Sigma-Aldrich, Steinheim, Germany) in deionized water. After 1 h of incubation, absorbance was measured at 570 nm using a 96-well microtiter plate reader (MRX microplate reader, Dynatech Laboratories, El Paso, US). Experiments were performed in six to eight biological replicates with two technical replicates for each combination of cell type, incubation time and pharmacologic compound concentration. The ratios of mean optical density of the duplicate to mean optical density of the associated controls were used for dose-response curves.
(§2) Technical duplicates with a coefficient of variation of more than 20% were excluded from the analysis of the cell assays. The pharmacodynamic model 108 of Phoenix® WinNonlin® software (version 8.1, Certara, USA) was used to determine half-maximal inhibitory concentrations (IC50 values). Further statistical analysis was performed with R 3.5.1 [60]. A generalized additive model was fitted for both MTS and CVS using the ‘mgcv’ package to estimate the effects of the BA concentration, cell line and duration of incubation on the ratio of the mean optical density of the duplicates from six to eight replicates to the mean optical density of the associated controls. The effect of concentration was modelled as a smoothed term interacting with the duration of incubation using a thin plate regression spline. The P-values were obtained by performing a Wald test for each parameter. Post-hoc comparisons for the cell line and duration of incubation were performed using the ‘multcomp’ package with single-step adjustment of the P-values. Plots were produced with ggplot2 [63]. Statistical significance was set at P < 0.05.

Series [3] concerns primary equine melanoma cells MelDuWi. Nature of the series: Crystal violet staining (CVS) proliferation assay. Conditions: Equus caballus, mean (95% CI), 6–8 experiments. In kind it is cell-based, horse. The procedure: as §1, §2
The subject of series [4] is primary equine melanoma cells eRGO1. Description: Crystal violet staining (CVS) proliferation assay. In kind it is cell-based, horse. Conditions: Equus caballus, mean (95% CI), 6–8 experiments. The procedure: as §1, §2
Series [5] deals with primary equine dermal fibroblasts PriFi2. Description: Crystal violet staining (CVS) proliferation assay. Format: cell-based, horse. As to conditions: Equus caballus, Fibroblast, mean (95% CI), 6–8 experiments. The procedure:
as §1, §2

The test system of series [6] is equine melanoma cells MelDuWi. Also noted: method as in PMID 26772157. As to conditions: 96 h incubation, read-out: IC50, sulforhodamine B assay; cited from earlier work. Background: Sulforhodamine B stains cellular protein and so reports cell mass.
Series [7] deals with primary equine dermal fibroblasts PriFi1. Nature of the series: MTS cytotoxicity assay (CellTiter 96 AQueous One Solution). Format: cell-based, horse. As to conditions: Equus caballus, Fibroblast, mean (95% CI), 6–8 experiments. The procedure:
as §1
(§3) The cytotoxicity of BA was evaluated using the CellTiter 96® AQueous One Solution Cell Proliferation Assay (MTS) (Promega GmbH, Mannheim, Germany). Cells were seeded into 96-well microtiter plates with the appropriate cell densities to achieve confluence after 48 h (MelDuWi 30.000 cells/well; PriFi1, PriFi2, eRGO1 20.000 cells/well). After 48 h, these cells were treated in accordance with the CVS assay. Experiments were stopped at the same time points as the CVS assay. The medium for the 96-h experiments was renewed before treatment. The MTS was applied in accordance with the manufacturer’s instructions. After 1 h incubation, the plate absorbance was measured at 490 nm using a 96-well microtiter plate reader (MRX microplate reader, Dynatech Laboratories, El Paso, US). Experiments were performed in six to eight biological replicates with two technical replicates for each combination of pharmacologic compound, cell type, incubation time and concentration.
as §2, with “Plots were produced with ggplot2 [63]. Statistical significance was set at P < 0.05.” left out

Series [8] relates to primary equine melanoma cells MelDuWi. Described as above. Format: cell-based, horse. Conditions: Equus caballus, mean (95% CI), 6–8 experiments. The procedure:
as §1, §3
as §2, with “Plots were produced with ggplot2 [63]. Statistical significance was set at P < 0.05.” left out

The subject of series [9] is primary equine melanoma cells eRGO1. The series is described as above. Format: cell-based, horse. As to conditions: Equus caballus, mean (95% CI), 6–8 experiments. The procedure: as §1, §3
as §2, with “Plots were produced with ggplot2 [63]. Statistical significance was set at P < 0.05.” left out

Series [10] relates to primary equine dermal fibroblasts PriFi2. The description is as above. Format: cell-based, horse. Conditions: Equus caballus, Fibroblast, mean (95% CI), 6–8 experiments. The procedure: as §1, §3
as §2, with “Plots were produced with ggplot2 [63]. Statistical significance was set at P < 0.05.” left out

Series [11] in a line: Franz-type diffusion cell penetration and permeation on isolated equine skin. Format: in vitro ADME, horse. As to conditions: 24 h FDC. An excerpt: Skin samples from seven adult horses of different sex (three mares, two geldings, two unknown) and breed (including three Warmbloods, one Icelandic horse and one Welsh Cob pony, two unknown) were harvested at the Institute of Pathology, University of Veterinary Medicine Hannover, Foundation, Hannover, after euthanasia at the Clinic for Horses, University of Veterinary Medicine Hannover, Foundation, Hannover, for reasons unrelated to the present study. The horses’ ages ranged from 4 to 24 years, with a median of 13.5 years. Skin from the lateral thorax was dissected and stored at − 20 °C for up to 5 months.
“Basiscreme DAC” (pharmaceutical amphiphilic formulation as published in the German Drug Codex) with 1% BA and 20% medium-chain triglycerides was provided by Skinomics GmbH, Halle, Germany.
In order to investigate the penetration and permeation of 1% BA with 20% medium-chain triglycerides in “Basiscreme DAC” through equine skin, the skin samples were defrosted overnight at room temperature. The coat was clipped to a length of approximately 0.5 mm. The integrity of the skin samples was visually assessed. Skin slices of 800 μm (+/− 110 μm) thickness were obtained with an electrical dermatome (Zimmer, Eschbach, Germany). Franz-type diffusion cells (FDC) (PermeGear, Riegelsville, USA, and Gauer Glas, Püttlingen, Germany) with a diffusion area of 1.77 cm^2 and an acceptor chamber volume of approximately 12 mL were filled with PBS and 1% bovine serum albumin. The acceptor chamber content was constantly stirred with a magnetic stirrer at 500 rpm. Diffusion chambers were maintained at 34 °C to ensure a skin temperature of 32 ± 0.5 °C. Before use, equal hydration of the skin samples was obtained by 30 min immersion in PBS. After gently drying with a paper tissue, 20 mg of the drug formulation was carefully applied to the skin surface (stratum corneum) covering the complete diffusion area before mounting the skin pieces onto the FDC. The donor chamber and sampling tube were covered with parafilm.
After 24 h, the remaining donor formulation was removed from the skin with a dry cotton swab. Cotton swabs, acceptor medium and exposed areas of the skin samples, which were cut out with a scalpel blade, were stored at − 20 °C until further processing and analysis. In order to determine the amount of BA in different skin layers, frozen skin samples were fixed on tissue freezing medium (Leica Biosystems Nussloch GmbH, Nussloch, Germany) and placed in a cryostat (CryoStar™ NX70 Cryostat, Thermofisher, Darmstadt, Germany). From each skin sample slices were cut horizontally to the epidermis, starting with the stratum corneum side uppermost, and stored separately. […] After reaching a skin depth of 310 μm, slices were pooled at 5 × 20 μm until a depth of a maximum of 910 μm was reached. The blade was cleaned with tissues soaked in 70% ethanol (CG Chemikalien, Laatzen, Germany) between each cut. These cleaning tissues and skin samples were stored at − 20 °C until final analysis. An analytic high-performance liquid chromatography method was developed for BA quantification in the different skin layers, acceptor medium and cleaning utensils mentioned previously. Reverse phase analysis was performed using an Agilent 1100 system (Agilent, Waldbronn, Germany) on a Kinetex column (5 μm, C18, 100 Å, 250 × 4.6 mm; Phenomenex, Torrance, US) at 35 °C developing with acetonitrile:water (0.1% HCOOH) 4:1 (v/v) at 2.5 mL/min. The diode array detector was set at 200 nm.

Series [12] relates to equine melanoma cells MelJess. Details: method as in PMID 26772157. As to conditions: 96 h incubation, read-out: IC50, sulforhodamine B assay; cited from earlier work.
Setting [13] is: 1% BA with 20% medium-chain triglycerides in Basiscreme DAC, mean ± SD.

Take `C=C(C)[C@@H]1CC[C@]2(CO)CC[C@]3(C)[C@H](CC[C@@H]4[C@@]5(C)CC[C@H](O)C(C)(C)[C@@H]5CC[C@]43C)[C@@H]12` [betulin]: the “side effects of topical treatment” value with actinic keratoses was “did not lead to any side effects”.
Broadly, the IC50 is the concentration that gives 50% inhibition. Regarding `C=C(C)[C@@H]1CC[C@]2(C(=O)O)CC[C@]3(C)[C@H](CC[C@@H]4[C@@]5(C)CC[C@H](O)C(C)(C)[C@@H]5CC[C@]43C)[C@@H]12` [betulinic acid, Betulinic acid], the “selectivity to tumor cells compared to normal cells” value in series [1] was “could not be demonstrated”. The IC50 stood at 58 µM in series [2] (PriFi1, 24 h treatment); 52.2 µM in [2] (PriFi1, 48 h treatment); 14.5 µM in [2] (PriFi1, 96 h treatment); 49.2 µM in series [3] (24 h treatment); 35.8 µM in series [3] (48 h treatment); 21.6 µM in series [3] (96 h treatment). Further, the IC50 came to 25.9 µM in [4] (eRGO1, 24 h treatment); 21.2 µM in series [4] (eRGO1, 48 h treatment); 19.6 µM in [4] (eRGO1, 96 h treatment); 30.3 µM in series [5] (PriFi2, 24 h treatment); 29.1 µM in series [5] (PriFi2, 48 h treatment); 13.8 µM in series [5] (PriFi2, 96 h treatment). Besides, the IC50 was 33.1 µM in series [6]; 20.4 µM in [7] (PriFi1, 24 h treatment); 18 µM in [7] (PriFi1, 48 h treatment); 13.8 µM in series [7] (PriFi1, 96 h treatment); 34.6 µM in series [8] (24 h treatment); 31.7 µM in [8] (48 h treatment). Besides, the IC50 in series [8] (96 h treatment) was 23.6 µM; in series [9] (eRGO1, 24 h treatment) it was 22.8 µM; in [9] (eRGO1, 48 h treatment), 20.7 µM; in series [9] (eRGO1, 96 h treatment) it was 12.7 µM; in series [10] (PriFi2, 24 h treatment) it was 24.8 µM; in [10] (PriFi2, 48 h treatment), 22.7 µM. Besides, the IC50 is 13.3 µM in series [10] (PriFi2, 96 h treatment) and 33.4 µM in series [12]. Also, the “BA amount applied analyzed in the skin” value in [11] (setting [13]) turned out to be 24 ± 1%. Besides, the “amount of BA applied detected in the acceptor media” value in series [11] (setting [13]) is reported as 18 ± 11%. Besides, the “amount of BA applied detected in the cotton swabs” value in series [11] (1% BA with 20% medium-chain triglycerides in Basiscreme DAC, remaining donor formulation, mean ± SD) was 56 ± 13%. Also, the recovery at 24 h, 1 % in [11] (both sexes, horse, 1% BA with 20% medium-chain triglycerides in Basiscreme DAC, mean ± SD, n = 7, read-out: overall BA recovery) amounted to 98 ± 7%. In addition, the “BA amount found in the blade cleaning tissues” value in series [11] (part of the amount in skin, 1% BA cream, mean ± SD) came to 9 ± 7%. For the same compound, the “concentration of BA in skin” value is 55.8 µM in series [11] (skin depth 710 μm, 1% BA cream, mean ± SD (SD 31 μmol/L)) and 39.6 µM in series [11] (skin depth 810 μm, 1% BA cream, mean ± SD (SD 38 μmol/L)).
